Active and inactive are the calls of the source. The calls are words filed in the database; no cut-off is given here.
Columns and labels:
[1] = target: T1, Glucagon-like peptide 1 receptor (Homo sapiens, UniProt P43220); assay: Activation of GLP1R (unknown origin) CRE-bla expressed in CHO-K1 cells assessed as receptor potency incubated for 1 hrs by time resolved fluorescence resonance energy transfer immunoassay; assay type: functional, cell-based
Albumin = Albumin (Homo sapiens, UniProt P02768); assay: Binding affinity to albumin (unknown origin) after 8 hrs by HPLC analysis; assay type: ADME; parameters: concentration or dose not given beside the values; settings: isolated protein
Albumin, sequence (P02768 whole entry): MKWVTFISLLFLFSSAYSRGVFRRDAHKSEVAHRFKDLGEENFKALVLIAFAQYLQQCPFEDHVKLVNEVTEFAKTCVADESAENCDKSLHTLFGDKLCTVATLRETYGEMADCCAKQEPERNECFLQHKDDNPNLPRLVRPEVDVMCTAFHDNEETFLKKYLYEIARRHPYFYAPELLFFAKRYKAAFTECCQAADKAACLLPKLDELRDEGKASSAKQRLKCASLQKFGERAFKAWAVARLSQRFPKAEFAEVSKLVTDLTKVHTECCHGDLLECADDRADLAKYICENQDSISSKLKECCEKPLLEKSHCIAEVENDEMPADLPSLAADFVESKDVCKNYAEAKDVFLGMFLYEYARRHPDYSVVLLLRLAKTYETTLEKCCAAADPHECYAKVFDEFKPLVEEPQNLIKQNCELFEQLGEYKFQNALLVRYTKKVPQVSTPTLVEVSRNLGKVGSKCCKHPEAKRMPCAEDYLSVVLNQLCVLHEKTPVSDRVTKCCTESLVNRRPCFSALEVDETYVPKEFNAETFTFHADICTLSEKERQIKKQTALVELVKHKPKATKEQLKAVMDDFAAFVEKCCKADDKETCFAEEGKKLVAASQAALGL

[2] = target: T1, Glucagon-like peptide 1 receptor; assay: Binding affinity to GLP1R (unknown origin) assessed as dissociation rate constant by surface plasmon resonance analysis
[3] = Toxicity in mouse assessed as change in body weight at 30 nmol/kg, sc measured at 1.5 hrs; assay type: organism-based; settings: in vivo
Mus musculus [4] = assay: Hypoglycemic effect in intragastric starch treated mouse assessed as decrease in glucose AUC at 30 nmol/kg, sc measured up to 24 hrs; assay type: functional, organism-based; settings: time hrs <=24
[5] = target: T1, Glucagon-like peptide 1 receptor; assay: Binding affinity to GLP1R (unknown origin) assessed as equilibrium constant by surface plasmon resonance analysis; settings: filed as activator
Mus musculus [6] = assay: Hypoglycemic effect in intragastric starch treated mouse assessed as reduction in blood glucose level at 30 nmol/kg, sc measured at 1.5 hrs; assay type: functional, organism-based
Mus musculus [7] = assay: Hypoglycemic effect in intragastric starch treated mouse assessed as reduction in blood glucose level at 30 nmol/kg, sc measured up to 24 hrs; assay type: functional, organism-based; settings: time hrs <=24
[8] = target: T1, Glucagon-like peptide 1 receptor; assay: Binding affinity to GLP1R (unknown origin) assessed as binding rate constant by surface plasmon resonance analysis; settings: filed as activator

T1 sequence (P43220 whole entry): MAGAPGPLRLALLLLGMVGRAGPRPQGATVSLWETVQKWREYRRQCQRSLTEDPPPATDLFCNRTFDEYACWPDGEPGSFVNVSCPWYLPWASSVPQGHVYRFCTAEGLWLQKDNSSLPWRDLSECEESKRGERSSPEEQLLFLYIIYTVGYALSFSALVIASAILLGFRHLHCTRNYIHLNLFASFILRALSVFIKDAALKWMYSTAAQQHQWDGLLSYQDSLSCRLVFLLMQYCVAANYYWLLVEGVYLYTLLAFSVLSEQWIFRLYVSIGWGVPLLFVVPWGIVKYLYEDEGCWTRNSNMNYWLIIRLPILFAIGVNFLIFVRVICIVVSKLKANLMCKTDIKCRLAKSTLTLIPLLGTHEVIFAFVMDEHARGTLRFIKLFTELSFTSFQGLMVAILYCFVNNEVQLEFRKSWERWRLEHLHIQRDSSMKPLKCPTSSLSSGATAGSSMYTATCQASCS

Compound | EC50 [1] | Activity (Albumin) | Dissociation rate constant (koff) [2] | Ke [5] | Ka [8] | Activity [3] | Activity (Mus musculus [4]) | Activity (Mus musculus [6]) | Activity (Mus musculus [7])
CCCCCCCCCCCCCCCC(=O)N[C@@H](CCC(=O)NCCCC[C@H](NC(=O)CC[C@H](NC(=O)CCCCCCCCCCCCCCC)C(=O)O)C(=O)NCCOCCOCC(=O)NCCOCCOCC(=O)O)C(=O)O | 0.0788 nM | – | – | – | – | – | – | – | –
CCCCCCCCCC(=O)N[C@@H](CCC(=O)NCCCC[C@H](NC(=O)CC[C@H](NC(=O)CCCCCCCCC)C(=O)O)C(=O)NCCOCCOCC(=O)NCCOCCOCC(=O)NCCOCCOCC(=O)O)C(=O)O | 0.132 nM | 86% | – | – | – | – | – | – | –
CCCCCCCCCC(=O)N[C@@H](CCC(=O)NCCCC[C@H](NC(=O)CC[C@H](NC(=O)CCCCCCCCC)C(=O)O)C(=O)NCCOCCOCC(=O)O)C(=O)O | 0.143 nM | 94.5% | – | – | – | – | – | – | –
CCCCCCCCCCCCCCCC(=O)N[C@@H](CCC(=O)NCCCC[C@H](NC(=O)CC[C@H](NC(=O)CCCCCCCCCCCCCCC)C(=O)O)C(=O)NCCOCCOCC(=O)NCCOCCOCC(=O)NCCOCCOCC(=O)O)C(=O)O | 0.0274 nM | – | – | – | – | – | – | – | –
CCCCCCCCCC(=O)N[C@@H](CCC(=O)NCCCC[C@H](NC(=O)CC[C@H](NC(=O)CCCCCCCCC)C(=O)O)C(=O)NCCOCCOCC(=O)NCCOCCOCC(=O)O)C(=O)O | 0.2 nM | 90.2% | – | – | – | – | – | – | –
SEMAGLUTIDE [listing 1 of 2 here] | – | – | – | 1.33 10^-6M | 9.24 10^4/Ms | – | Active | Active | Active
CCCCCCCCCCCC(=O)N[C@@H](CCC(=O)NCCCC[C@H](NC(=O)CC[C@H](NC(=O)CCCCCCCCCCC)C(=O)O)C(=O)NCCOCCOCC(=O)NCCOCCOCC(=O)O)C(=O)O | 0.0101 nM | 94.3% | 8.57 10^-3/s | 1.44 10^-5M | 5.97 10^2/Ms | Toxic | Active | Active | Active
CCCCCCCCCCCC(=O)N[C@@H](CCC(=O)NCCCC[C@H](NC(=O)CC[C@H](NC(=O)CCCCCCCCCCC)C(=O)O)C(=O)NCCOCCOCC(=O)O)C(=O)O | 0.0142 nM | > 99% | 6.5 10^-3/s | 5.85 10^-6M | 1.11 10^3/M/s | Toxic | Active | Active | Active
SEMAGLUTIDE [listing 2 of 2 here] | – | > 99% | – | – | – | Toxic | – | – | –
CCCCCCCCCCCCCCCC(=O)N[C@@H](CCC(=O)NCCCC[C@H](NC(=O)CC[C@H](NC(=O)CCCCCCCCCCCCCCC)C(=O)O)C(=O)NCCOCCOCC(=O)O)C(=O)O | 0.0723 nM | – | – | – | – | – | – | – | –

More lines, main results first:

EC50 [1] | Activity (Albumin) | Dissociation rate constant (koff) [2] | Ke [5] | Ka [8] | Compound | Activity [3] | Activity (Mus musculus [4]) | Activity (Mus musculus [6]) | Activity (Mus musculus [7])
0.0051 nM | 91.6% | 2.37 10^-2/s | 7.25 10^-6M | 3.26 10^3/M/s | CCCCCCCCCCCC(=O)N[C@@H](CCC(=O)NCCCC[C@H](NC(=O)CC[C@H](NC(=O)CCCCCCCCCCC)C(=O)O)C(=O)NCCOCCOCC(=O)NCCOCCOCC(=O)NCCOCCOCC(=O)O)C(=O)O | Toxic | Active | Active | Active
0.0096 nM | – | – | – | – | CCCCCCCCCCCCCC(=O)N[C@@H](CCC(=O)NCCCC[C@H](NC(=O)CC[C@H](NC(=O)CCCCCCCCCCCCC)C(=O)O)C(=O)NCCOCCOCC(=O)O)C(=O)O | Toxic | – | Active | Active
0.0066 nM | – | – | – | – | CCCCCCCCCCCCCC(=O)N[C@@H](CCC(=O)NCCCC[C@H](NC(=O)CC[C@H](NC(=O)CCCCCCCCCCCCC)C(=O)O)C(=O)NCCOCCOCC(=O)NCCOCCOCC(=O)O)C(=O)O | Toxic | Active | – | –
0.0016 nM | – | – | – | – | CCCCCCCCCCCCCC(=O)N[C@@H](CCC(=O)NCCCC[C@H](NC(=O)CC[C@H](NC(=O)CCCCCCCCCCCCC)C(=O)O)C(=O)NCCOCCOCC(=O)NCCOCCOCC(=O)NCCOCCOCC(=O)O)C(=O)O | Toxic | Active | Active | Active

— ChEMBL document CHEMBL4823284, “Design, synthesis and biological evaluation of double fatty chain-modified glucagon-like peptide-1 conjugates” (Bioorg Med Chem, 2021)
